Source: patent publication US20240261301A1, “COMPOSITION COMPRISING INOTODIOL FOR PREVENTION OR TREATMENT OF MUSCULAR DISEASE” (ANIMUSCURE INC., priority 2021, published 2024)

How the values were obtained:
[1] = system: PGC-1α; assay: PGC-1α mRNA expression by qRT-PCR in C2C12 cells; type: cell-based, mouse; settings: differentiating C2C12, qRT-PCR, normalized to 18s rRNA, vs control
Protocol: (§1) Cells were seeded into the cell culture medium (GM), and cultured for 24 hours. Thereafter, the differentiation medium (DM) was treated with DMSO and inotodiol (0.1, 0.5, 1.0, and 10 μM) at different concentrations, and differentiation was induced for 2 to 3 days.
The C2C12 cells whose differentiation was induced in Example 1 were lysed using an Easy-spin Total RNA Extraction kit, and chloroform was added thereto. Then, the C2C12 cells were centrifuged. After the supernatant was separated, the same volume of isopropanol was added and bound to the cells. After centrifugation, the cells were washed with 70% EtOH mixed with DEPC water, and the concentration of RNA was quantified by adding 20 to 50 μL of a DEPC solution. RNA was reverse-transcribed using a PrimeScript cDNA synthesis kit to synthesize cDNA. Then, the gene expression was analyzed by qRT-PCR in a real-time PCR system using SYBR Premix EX Taq. Fold changes in gene expression were normalized against the expression of ribosomal gene 18s rRNA.

[2] = system: mouse model in which muscle damage is induced by CTX; settings: CTX mice
Protocol: Ten 5-month-old C57BL/6 male mice were used as experimental animals.
However, each of the weights of the hindlimb muscle tissues, such as the tibialis anterior muscle (TA), extensor digitorum longus muscle (EDL), soleus muscle (Sol), and gastrocnemius muscle (Gas), of the experimental animals was measured.
Hematoxylin & eosin staining (H&E staining) was performed using the TA muscle isolated from the tissue of each of the experimental animals. Frozen sections fixed with 4% paraformaldehyde were stained with hematoxylin and stained with eosin for contrast staining, mounted, and observed under an optical microscope.
The relative mRNA expression levels were compared for each muscle type of Myh7 (MHCI), Myh2 (MHCIIa), Myh4 (MHCIIb), and Myh1 (MHCIIx).

[3] = system: PGC-1α promoter; assay: PGC-1α reporter (luciferase) assay; type: cell-based, mouse
Protocol: Immediately after cells were seeded at a density of 1×10^4 cells/well in a 96-well culture plate, the cells were transfected by treating the cells with PGC-1α (DNA) and a plasmid at a ratio of [150 ng/10 μL]+[0.3 μL/10 μL] per well. […] After 24 hours of drug treatment, the cells were lysed in 30 μL of a passive lysis buffer (Promega) per well, and the dissolved cell solution was transferred to a plate for luminometer reading. Then, an equal amount of luciferin, which is a substrate of luciferase, was subjected to an enzymatic reaction to determine the degree of luminescence. The measured values were standardized for each well and plate, and expressed as a relative ratio using the measured values in the wells treated with DMSO, which is a solvent of the compound, as the control. The expression level of luciferase in the PGC-1α reporter cell line depends on the stimulation received by a PGC-1α promoter. That is, if the compound is a PGC-1α expression inducer, it stimulates the PGC-1a promoter to increase the expression of luciferase, and if the compound is a PGC-1α expression inhibitor, luciferase expression decreases.

[4] = system: mouse model in which myoatrophy is induced by DEX; assay: Myotube atrophy in myoatrophy-induced (DEX) mouse model; type: in vivo; settings: DEX (dexamethasone 20 mg/kg) model
Protocol: Experimental animals were grouped into 10 animals having a similar body weight, and dexamethasone was administered at a dose of 20 mg/kg to one group to induce […].
For the myoatrophy mouse model of Example 3, the effects of alleviating and recovering myotube atrophy were determined when inotodiol was administered.

[5] = system: high-fat diet mice; assay: Exercise capacity in high-fat diet mouse model (treadmill, grip test); type: in vivo; settings: high-fat diet-fed mice
Protocol: When inotodiol was administered to high-fat diet mice, the effects on muscle strength and exercise performance ability were determined. After inotodiol was administered to a high-fat diet-fed mouse model, the exercise duration and movement distance were measured through a treadmill experiment. […] As a result of the grip test, it was also confirmed that the high-fat diet mouse model had lower muscle strength than the mean muscle strength.

[6] = system: muscle fibrosis; assay: Muscle fibrosis in CTX muscle damage mouse model; type: in vivo; settings: then inotodiol
[7] = system: normal mice; assay: Long-term (2 months) inotodiol administration to normal mice; type: in vivo, mouse
Protocol: For normal mice in which the muscle damage or muscle atrophy was not induced, an experiment was conducted to determine whether there was an effect of increasing muscle mass and muscle strength when inotodiol was administered. For the mice to which inotodiol was administered for 2 months, an experiment was conducted to measure a change in muscle mass and muscle strength of hindlimb muscles after the administration of inotodiol (a grip test).

[8] = system: ATPSA, MTCO1, and NDUF88; assay: Mitochondrial activity markers (T-OxPHOS immunoblotting) in C2C12 myoblasts; type: cell-based, mouse; settings: inotodiol at each concentration
Protocol: as §1
To induce the differentiation of C2C12 myoblasts in the same manner as in Example 1 and check mitochondrial activity, the expression characteristics of a T-OxPHOS antibody mixed with ATPSA, MTCO1, and NDUF88 were confirmed through immunoblotting. For each of the proteins included in the T-OxPHOS antibody, ATPSA is a constituent protein of ATP synthase that contributes to the ATP synthesis in mitochondria, MTCO1 is associated with the oxidase activity of cytochrome-c, which is a component of the electron transport system in the inner membrane of mitochondria, and NDUF 88 encodes a subunit of NADH:ubiquinone oxidoreductase (Complex 1), which is the first enzyme complex in the mitochondrial electron transport system.

[9] = system: muscle stem cells; assay: Muscle stem cell proliferation (BrdU analysis) after CTX muscle damage; type: in vivo, mouse
Protocol: To induce muscle damage, CTX was injected into the mice to which inotodiol was administered once a day for 7 days. Then, it was determined through BrdU analysis whether or not the proliferation of muscle stem cells was enhanced (FIG. 10).

[10] = system: C2C12 cells; assay: Myoblast differentiation of C2C12 cells (MHC immunostaining and immunoblot); type: cell-based, mouse
Protocol: The C2C12 cells were cultured in a general cell culture medium and a differentiation medium, respectively. DMEM supplemented with 15% fetal bovine serum was used as the normal cell culture medium (i.e., a growth medium (GM)), and DMEM supplemented with 2% horse serum was used as the differentiation medium (DM).
The C2C12 cells whose differentiation was induced in Example 1 were washed with 1× PBS, and then fixed with 3.7% paraformaldehyde at room temperature. Thereafter, a permeabilization buffer was added thereto, and reacted at room temperature. Unspecific antibody binding was inhibited by reacting with PBST (a blocking buffer) containing 3% BSA and PBS containing 0.1% Tween 20. A primary antibody against a myosin heavy chain (MHC) was diluted 1:500 in a blocking buffer, added, and reacted at room temperature. A secondary antibody diluted 1:5000 in a blocking buffer was added, and reacted at room temperature.
The C2C12 cells whose differentiation was induced in Example 1 were collected, lysed by adding a lysis buffer (20 mM Tris-HCl, pH 8.0, 150 mM NaCl, 1% Triton X, a proteinase inhibitor), and then the cell lysis sample was quantified. Thereafter, the same amount of protein was subjected to SDS-PAGE electrophoresis, and transferred to a PVDF membrane. […]

[11] = 300 μg/kg oral, 21 days after CTX
[12] = 2 months administration, vs control
[13] = inotodiol once a day for 7 days, then CTX

Compound: CC(C)=CC[C@@H](O)[C@@H](C)[C@H]1CC[C@@]2(C)C3=C(CC[C@]12C)[C@@]1(C)CC[C@H](O)C(C)(C)C1CC3 (some centres unmarked) [inotodiol]
- mRNA expression for PGC-1α [1]: significantly increased compared to the control
- increase in muscle mass, extensor digitorum longus muscle (EDL), vs control [2, 11]: 18.9%
- increase in muscle mass, gastrocnemius muscle (Gas), vs control [2, 11]: 9.5%
- increase in muscle mass, soleus muscle (Sol), vs control [2, 11]: 5.2%
- increase in muscle mass, tibialis anterior muscle (TA), vs control [2, 11]: 16.0%
- expression of Myh2 (MHCIIa) ([2]; 21 days after muscle damage): tended to greatly increase
- relative mRNA expression levels of muscle fiber types Myh7, Myh2, Myh4, Myh1 ([2]; 21 days after muscle damage): no significant difference
- blood glucose ([2]; day 21 after induction of muscle damage, vs control): blood glucose-lowering effect was confirmed
- increase in grip strength vs control ([2]; day 21 after muscle damage, grip strength test): approximately 6.8%
- change in body weight ([2]; inotodiol 300 μg/kg oral, 21 days after CTX): no change in body weight was observed
- increase in muscle fiber cross-sectional area (CSA) of TA muscle vs control ([2]; laminin staining): 89.4%
- muscle regeneration (H&E staining of TA muscle) ([2]; vs control): significant muscle regeneration effect
- luciferase activity for PGC-1α ([3]; inotodiol 0.1, 0.5, 1.0 μM, 24 h, relative to DMSO): increased in an inotodiol concentration-dependent manner
- luciferase activity for PGC-1α compared with positive control ([3]; vs 0.5 mM AICAR positive control): higher than that of 0.5 mM AICAR
- cross-sectional area of myotubes [4]: restored to the same level as that of the normal group
- size of muscles and muscle fibers [4]: increased
- exercise capacity (exercise duration and movement distance, treadmill) [5]: recovered exercise capacity to the level of the normal control
- muscle strength (grip test) [5]: muscle strength was improved
- area of the muscle tissue in which fibrosis progressed [6]: reduced
- muscle fibrosis in muscle tissue [6]: fibrosis was ameliorated
- hindlimb muscle mass [7, 12]: increased
- muscle strength (grip test) [7, 12]: also increased
- weight of fat relative to weight gain ([7]; long-term administration): increased relatively less
- weight-to-muscle ratio ([7]; long-term administration): higher than that of the non-administered group
- expression levels of PGC-1α and mitochondrial-related genes in muscle ([7]; long-term administration, vs control): increased compared to the control
- expression level of mitochondrial proteins (ATPSA, MTCO1, NDUF88) [8]: increased in proportion to the concentration of inotodiol
- expression of genes involved in muscle growth ([9]; CTX muscle damage): effect of enhancing the expression of genes involved in muscle growth was confirmed
- relative mRNA expression levels of genes involved in the cell cycle ([9]; CTX muscle damage): increased
- expression level of BrdU in muscle tissues [9, 13]: increased
- expression levels of Pax7 and Ki67 and expression ratio of Ki67 to Pax7 [9, 13]: increased
- formation of multinucleated myotubes ([10]; C2C12, inotodiol 0.1, 0.5, 1.0, 10 μM, immunostaining on day 2 of differentiation): increased in a concentration-dependent manner
- expression level of MHC (differentiation marker) ([10]; C2C12, inotodiol at different concentrations, immunoblot, vs DMSO-treated control): increased in a concentration-dependent manner
